Ki, EC50 and Ratio data for seven molecules are collected here from ChEMBL document CHEMBL1127588, “A structure-activity relationship study of benzylic modifications of 4-[1-(1-naphthyl)ethyl]-1H-imidazoles on alpha 1- and alpha 2-adrenergic receptors” (J Med Chem, 1994).

Molecules are shown by their SMILES.

Test [1] has as its target T1, Adrenergic receptor alpha-2 (Rattus norvegicus, UniProt P22086+P19328+P22909).
T1 sequence (P22086 whole entry): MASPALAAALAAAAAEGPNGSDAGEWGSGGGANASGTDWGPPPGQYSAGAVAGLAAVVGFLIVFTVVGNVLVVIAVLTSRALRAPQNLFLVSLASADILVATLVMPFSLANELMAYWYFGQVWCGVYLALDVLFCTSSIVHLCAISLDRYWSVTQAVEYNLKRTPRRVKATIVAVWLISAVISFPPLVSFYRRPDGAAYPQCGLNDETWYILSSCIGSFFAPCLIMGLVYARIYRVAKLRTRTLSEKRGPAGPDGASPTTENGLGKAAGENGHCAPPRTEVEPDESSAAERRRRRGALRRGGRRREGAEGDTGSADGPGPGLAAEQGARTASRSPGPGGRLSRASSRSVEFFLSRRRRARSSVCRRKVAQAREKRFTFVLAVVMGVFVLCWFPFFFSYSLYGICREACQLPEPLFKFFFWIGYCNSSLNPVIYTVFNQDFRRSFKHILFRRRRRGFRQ
T1 sequence (P19328 whole entry): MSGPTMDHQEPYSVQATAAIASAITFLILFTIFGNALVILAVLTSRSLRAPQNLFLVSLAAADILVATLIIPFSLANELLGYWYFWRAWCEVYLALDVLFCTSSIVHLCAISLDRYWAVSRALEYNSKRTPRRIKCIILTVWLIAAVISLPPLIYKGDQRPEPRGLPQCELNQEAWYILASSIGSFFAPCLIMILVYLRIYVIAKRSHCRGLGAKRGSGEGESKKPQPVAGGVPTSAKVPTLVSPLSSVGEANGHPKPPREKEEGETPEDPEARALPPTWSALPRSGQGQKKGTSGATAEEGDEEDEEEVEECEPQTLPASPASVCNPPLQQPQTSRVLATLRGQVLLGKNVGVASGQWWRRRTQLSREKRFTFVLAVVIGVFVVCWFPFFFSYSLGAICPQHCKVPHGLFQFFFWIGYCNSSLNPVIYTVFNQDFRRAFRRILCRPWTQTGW
T1 sequence (P22909 whole entry): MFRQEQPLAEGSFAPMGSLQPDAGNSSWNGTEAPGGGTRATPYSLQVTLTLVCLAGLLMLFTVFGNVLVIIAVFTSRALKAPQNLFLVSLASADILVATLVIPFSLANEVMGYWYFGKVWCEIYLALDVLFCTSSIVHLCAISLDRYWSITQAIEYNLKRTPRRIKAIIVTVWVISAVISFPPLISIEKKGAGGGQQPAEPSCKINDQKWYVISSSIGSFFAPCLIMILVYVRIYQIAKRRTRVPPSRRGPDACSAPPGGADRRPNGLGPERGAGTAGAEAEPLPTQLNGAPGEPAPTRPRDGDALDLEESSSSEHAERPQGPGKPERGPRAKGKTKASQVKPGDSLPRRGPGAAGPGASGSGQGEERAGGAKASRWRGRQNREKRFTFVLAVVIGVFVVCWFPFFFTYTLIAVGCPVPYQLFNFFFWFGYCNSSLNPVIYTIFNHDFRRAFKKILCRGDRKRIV
In words: Tested for its binding affinity against alpha-2 receptor in rat brain membrane. Format: cell membranes.

The target of test [2] is T2, Adrenergic receptor alpha-2 (Homo sapiens, UniProt P08913+P18825+P18089).
T2 sequence (P08913 whole entry): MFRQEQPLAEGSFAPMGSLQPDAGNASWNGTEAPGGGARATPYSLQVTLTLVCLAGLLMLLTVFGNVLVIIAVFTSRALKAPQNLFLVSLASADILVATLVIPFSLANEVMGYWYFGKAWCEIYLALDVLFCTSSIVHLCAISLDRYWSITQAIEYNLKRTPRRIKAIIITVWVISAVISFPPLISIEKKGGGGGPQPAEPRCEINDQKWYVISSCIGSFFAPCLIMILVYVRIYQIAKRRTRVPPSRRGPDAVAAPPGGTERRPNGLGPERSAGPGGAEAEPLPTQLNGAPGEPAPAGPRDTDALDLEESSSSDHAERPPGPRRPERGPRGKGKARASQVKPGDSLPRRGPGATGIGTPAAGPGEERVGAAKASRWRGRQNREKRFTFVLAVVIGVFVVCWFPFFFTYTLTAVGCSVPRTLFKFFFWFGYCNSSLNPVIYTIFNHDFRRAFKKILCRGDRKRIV
T2 sequence (P18825 whole entry): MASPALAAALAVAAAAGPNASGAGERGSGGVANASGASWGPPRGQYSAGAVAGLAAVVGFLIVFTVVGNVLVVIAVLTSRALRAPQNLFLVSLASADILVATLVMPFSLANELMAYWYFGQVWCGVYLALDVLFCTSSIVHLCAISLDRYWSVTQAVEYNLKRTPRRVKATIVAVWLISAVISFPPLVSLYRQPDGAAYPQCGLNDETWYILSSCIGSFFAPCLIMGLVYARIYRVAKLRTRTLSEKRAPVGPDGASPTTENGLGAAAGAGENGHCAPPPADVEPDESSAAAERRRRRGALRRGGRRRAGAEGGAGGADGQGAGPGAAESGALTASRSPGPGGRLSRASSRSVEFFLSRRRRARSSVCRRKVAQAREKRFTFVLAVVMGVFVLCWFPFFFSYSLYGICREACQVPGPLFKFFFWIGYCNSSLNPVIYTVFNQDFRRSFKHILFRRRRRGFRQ
T2 sequence (P18089 whole entry): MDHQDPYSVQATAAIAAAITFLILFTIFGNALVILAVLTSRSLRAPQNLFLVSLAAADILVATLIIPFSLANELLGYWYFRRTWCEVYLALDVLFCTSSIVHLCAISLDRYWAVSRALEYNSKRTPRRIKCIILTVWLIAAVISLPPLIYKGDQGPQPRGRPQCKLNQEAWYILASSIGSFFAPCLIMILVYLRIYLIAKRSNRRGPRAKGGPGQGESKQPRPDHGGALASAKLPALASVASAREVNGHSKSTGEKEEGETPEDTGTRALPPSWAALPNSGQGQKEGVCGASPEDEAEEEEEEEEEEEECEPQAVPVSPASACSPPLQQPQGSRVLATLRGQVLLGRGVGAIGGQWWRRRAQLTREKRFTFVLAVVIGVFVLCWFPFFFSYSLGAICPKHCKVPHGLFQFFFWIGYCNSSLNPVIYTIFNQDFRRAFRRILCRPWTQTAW
In words: Tested for its inhibitory activity against alpha-2 adrenoceptor in guinea pig ileum. The following applies: target entry is the homologue from another species. The class given is tissue-based, Cavia porcellus.

Test [3] in a line: Ratio between IC50 values of alpha 1 and alpha 2 receptors.
In test [4] the target is Adrenergic receptor alpha (Rattus norvegicus) (UniProt P15823+P23944+P43140+P22086+P19328+P22909). The test can be described thus: Ratio between EC50 values of alpha 1 and alpha 2 receptors. Format: protein assay.

As for `CC(c1c[nH]cn1)c1cccc2ccccc12` (stereo in doubt; S-(-)-2), in test [1], the inhibition constant Ki worked out at 0.024 µM. This counts as double-digit nanomolar.
On to `Cl.c1ccc2c(Cc3c[nH]cn3)cccc2c1`, for which, in test [2], the EC50 is 0.018 µM. Moreover, the inhibition constant Ki in test [1] came out at 0.068 µM. The Ratio in test [3] came to 2.7; in test [4] it was 117.
In turn, `Cc1cccc(C(C)c2c[nH]cn2)c1C` (configuration not stated) [MEDETOMIDINE] showed a Ki in test [1] of 0.019 µM.
For the molecule `CC(c1c[nH]cn1)c1cccc2ccccc12` (stereo in doubt; 2), the EC50 in test [2] came out at 0.009 µM. The Ki in test [1] came to 0.017 µM.
For `CC(c1c[nH]cn1)c1cccc2ccccc12` (stereo in doubt; S-(+)-2), in that order: 0.011 µM and 0.011 µM.
In test [2], `COC(c1c[nH]cn1)c1cccc2ccccc12.Cl` (configuration not stated) displayed an EC50 of 32.992 µM. This molecule returned a Ki in test [1] of 8.582 µM. Further, the Ratio in test [3] is > 5.8.
Take `Cl.OC(c1c[nH]cn1)c1cccc2ccccc12` (configuration not stated): the half-maximal effective concentration (EC50) in test [2] stood at 0.375 µM. This molecule also registered a Ki in test [1] of 8.81 µM. Moreover, the Ratio in test [3] worked out at 1.05; in test [4], 33.8.

The Ki is the equilibrium dissociation constant of an inhibitor or competing ligand from its target. For orientation: EC50 means the midpoint of the concentration-response curve. High values mean lower potency in that assay, low ones higher potency in that assay.
